Values quoted from earlier work as cited in patent publication US20200241005A1, “COMPOSITIONS AND METHODS FOR THE DIAGNOSIS AND TREATMENT OF DISEASES OF THE LIVER” (Viscient Biosciences, Inc., priority 2019, published 2020).

Legend:
SLC1A1 [1] = conditions: SLC1A1 vs SLC1A2 and SLC1A3
SLC1A1 [2] = conditions: astroglial cells; unknown mechanism

Structure (SMILES)	preference for SLC1A1 over its most related homologs SLC1A2 and SLC1A3 (SLC1A1 [1]) [fold]	effect on SLC1A1 expression (SLC1A1 [2])
N[C@H](C(=O)O)[C@H](Cc1ccccc1)C(=O)O [L-beta-benzyl-aspartate]	10	
Nc1nc2ccc(OC(F)(F)F)cc2s1 [Riluzole]		enhances SLC1A1 expression
